Assay results as given in patent publication US20080132520A1, “COMPOSITIONS, KITS AND METHODS FOR ADMINISTERING A TITRATION SCHEDULE COMPRISING BIFEPRUNOX COMPOUNDS” (priority 2006, published 2008).

Assays:
[1] = Clinical investigations on bifeprunox mesylate: tolerability; details: human, in vivo
[2] = Randomized, double-blinded, placebo-controlled, sequential panel, rapid titration study: safety and tolerability; type: in vivo, human
Description: This study represented a randomized, double-blinded, placebo-controlled, sequential panel, rapid titration study of the safety and tolerability of bifeprunox compounds in subjects with schizophrenia. In particular, this study assessed the safety, tolerability and efficacy after a rapid titration of bifeprunox to a therapeutic dose of 40 mg/day in schizophrenia and schizoaffective subjects. Eligible subjects were hospitalized at the start of the screening period and entered a single-blind placebo run-in period (day -7 to -1) to assure that the 7-day antipsychotic drug-free criterion was met prior to bifeprunox titration. Subjects then began rapid titration at an initial bifeprunox starting dose of 0.25 mg with a high proposed therapeutic dose of 40 mg/day. Two titration schedules were evaluated in sequential order, with the titration period lasting 6 to 7 days depending on the titration schedule (Day 1 to Day 6 or 7).
Each listed dose in the titration schedule was administered once daily (QD) followed by the next higher dose the following day. […] Only one repeat dose, however, was allowed during the entire titration period. Upon reaching the high proposed dose of 40 mg/day, the subject entered a 3-day maintenance period for this dose. Final assessments were performed on the day after the last maintenance period dose and follow-up assessments were performed 3 days after the last dose of study treatment.
Efficacy assessments (i.e., Positive and Negative Symptoms of Schizophrenia (PANSS) and Clinical Global Impression-Severity (CGI-S) were performed at screening, Day-1 and at the final assessment; Clinical Global Impressions-improvement (CGI-I was performed at the final assessment only. Safety was monitored throughout the study by assessment of physical examination, vital signs, adverse events (AEs), concomitant medications, clinical laboratory assessments, 12-lead electrocardiograms (ECGs), Simpson-Angus Scale (SAS) score and Barnes Akathisia Scale (BAS) score. The treatment phase lasted approximately two weeks, including follow-up assessment. Subjects remained hospitalized until the post-treatment follow-up assessment was completed or until their condition had clinically stabilized.
The study planned to include 20 subjects (10 subjects per panel). Twenty-seven subjects were screened and 18 were randomized (7 to bifeprunox and 1 to placebo in titration schedule 1 and 8 to bifeprunox and 2 to placebo titration schedule 2c). Ten subjects per panel were initially available as planned. Two subjects, however, dropped out of the first panel before the start of the study. As such, the study proceeded with the eighteen subjects.
Males and females between 18-55 years old meeting Diagnostic and Statistical Manual of Mental Disorders, 4th edition, Text Revised (DSM-IV TR) diagnosis of Schizophrenia disorder (295.10, 295.20, 295.30, 295.60 and 295.90) or Schizoaffevtive disorder (295.70).
Bifeprunox were tablets taken orally at a total daily dose of 0.25 mg to 40 mg in the following titration schedules:
Placebo tablets matching the bifeprunox tablets were taken orally using the same dosing regimen as the test product.

dopamine D2/3 receptors = details: cited from earlier work
[3] = Rapid titration study: efficacy assessments (PANSS, CGI-S, CGI-I); type: in vivo, human; details: short treatment period, titration to 40 mg/day plus 3-day maintenance
Description: This study represented a randomized, double-blinded, placebo-controlled, sequential panel, rapid titration study of the safety and tolerability of bifeprunox compounds in subjects with schizophrenia. […] Efficacy assessments (i.e., Positive and Negative Symptoms of Schizophrenia (PANSS) and Clinical Global Impression-Severity (CGI-S) were performed at screening, Day-1 and at the final assessment; Clinical Global Impressions-improvement (CGI-I was performed at the final assessment only. […] The treatment phase lasted approximately two weeks, including follow-up assessment. Subjects remained hospitalized until the post-treatment follow-up assessment was completed or until their condition had clinically stabilized.

[4] = biological target: T1, serotonin 5-HT1A receptors (Homo sapiens, UniProt P08908); details: cited from earlier work
T1 sequence (P08908 1-422): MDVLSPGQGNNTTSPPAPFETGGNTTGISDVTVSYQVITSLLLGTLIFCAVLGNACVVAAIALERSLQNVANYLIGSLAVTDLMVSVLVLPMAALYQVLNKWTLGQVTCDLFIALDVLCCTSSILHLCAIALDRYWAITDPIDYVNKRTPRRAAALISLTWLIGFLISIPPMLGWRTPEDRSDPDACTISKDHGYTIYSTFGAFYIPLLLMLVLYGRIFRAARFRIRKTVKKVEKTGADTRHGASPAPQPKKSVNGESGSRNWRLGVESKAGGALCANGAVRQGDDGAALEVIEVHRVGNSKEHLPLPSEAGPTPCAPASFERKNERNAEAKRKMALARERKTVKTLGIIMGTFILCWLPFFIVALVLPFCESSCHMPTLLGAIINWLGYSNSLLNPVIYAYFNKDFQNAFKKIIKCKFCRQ

Compound	tolerability during clinical investigations [1]	subjects with TEAEs leading to discontinuation of the study treatment ([2]; titration schedule 1)	subjects with at least 1 TEAE related to study treatment ([2]; titration schedule 1)	subjects with vital sign abnormalities on the same day as relevant AEs (dizziness or orthostatic hypotension) ([2]; titration schedule 1)	tolerability of daily increases to 20 to 40 mg once the 10 mg dose was reached ([2]; titration schedule 1)	subjects reporting at least one treatment emergent adverse event (TEAE) ([2]; titration schedule 1 (0.25, 1, 5, 10, 20, 40 mg QD oral over 6 days), 7 subjects on bifeprunox)	TEAEs at the 20 mg dose level ([2]; titration schedule 1, 20 mg dose level)	subjects reporting TEAEs considered to be severe ([2]; titration schedule 1, severe TEAEs at the 1, 5 and 10 dose levels)	TEAEs of anorexia, gait abnormal NOS or orthostatic hypotension ([2]; titration schedule 2c)	additional subjects requiring re-challenge of a dose level who completed titration up to 40 mg ([2]; titration schedule 2c)	subjects with TEAEs related to the study treatment ([2]; titration schedule 2c)	subjects with vital sign abnormalities same days as AEs of dizziness ([2]; titration schedule 2c)	subjects reporting at least one TEAE ([2]; titration schedule 2c (0.25, 0.5, 2, 5, 10, 20, 40 mg QD oral over 7 days), 8 subjects on bifeprunox)	tolerability of titration from 0.25 mg to 40 mg over 7 days versus over a 6-day period ([2]; titration schedule 2c versus 1)	subjects with TEAE leading to discontinuation of the study treatment ([2]; titration schedule 2c, TEAE of dizziness)	subjects reporting TEAEs considered to be severe ([2]; titration schedule 2c, severe TEAEs at the 2 mg and 5 mg dose level)	effects on BAS, SAS, ECG or clinical laboratory evaluations ([2]; titration schedules 1 and 2c)	functional activity at dopamine D2/3 receptors (dopamine D2/3 receptors)	benefit over placebo in severity of symptoms of schizophrenia (PANSS total scores, CGI-S and CGI-I scores, responder rate) [3]	functional activity at serotonin 5-HT1A receptors [4]
CS(=O)(=O)O.O=c1[nH]c2cccc(N3CCN(Cc4cccc(-c5ccccc5)c4)CC3)c2o1 [bifeprunox mesylate, 7-[4-([1,1′-biphenyl]-3-ylmethyl)-1-piperazinyl]-2(3H)-benzoxazolone monomethane-sulfonate]	well tolerated	–	–	–	–	–	–	–	–	–	–	–	–	–	–	–	–	–	–	–
O=c1[nH]c2cccc(N3CCN(Cc4cccc(-c5ccccc5)c4)CC3)c2o1 [bifeprunox, 7-[4-([1,1′-biphenyl]-3-ylmethyl)-1-piperazinyl]-2(3H)-benzoxa-zolone]	–	Three subjects	All subjects	Two subjects	well-tolerated	All subjects	No TEAEs occurred	Three subjects	no TEAEs	Two additional subjects	Six out of 8	Four subjects	All subjects	better tolerated	One subject	Three subjects	Neither titration schedule of bifeprunox appeared to have any effects	partial agonist	little benefit	partial agonist
